# According to PubChem BioAssay AID2060889 (Molecular Pharmacology Branch, DTP, NCI, 2025):
# Tested on: LG0567-F671-PDC complex spheroids viability
# Assay: Anticancer human tumor LG0567-F671-PDC patient-derived lung adenocarcinoma cell line growth inhibition [RAS]
# Details: for IC50: curve of first compound; for viability, T/C: stronger effect = lower value
# Outline: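 Agents were tested in combination matrices in half-log decrements from a top concentration at or near clinical Cmax (10 microM if undetermined). Targets were multi-cell spheroids of tumour lines plus HUVEC and MSC stromal cells.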
# [1] = second compound 0.000949 µM, first compound 0.0316 µM
# [2] = second compound 0.000949 µM, first compound 0.1 µM
# [3] = second compound 0.000949 µM, first compound 0.316 µM
# [4] = second compound 0.000949 µM, first compound 1 µM
# [5] = second compound 0.000949 µM, first compound 3.16 µM
# [6] = second compound 0.000949 µM, first compound 10 µM
# [7] = second compound 0.003 µM, first compound 0.0316 µM
# [8] = second compound 0.003 µM, first compound 0.1 µM
# [9] = second compound 0.003 µM, first compound 0.316 µM
# [10] = second compound 0.003 µM, first compound 1 µM
# [11] = second compound 0.003 µM, first compound 3.16 µM
# [12] = second compound 0.003 µM, first compound 10 µM
# [13] = second compound 0.00949 µM, first compound 0.0316 µM
# [14] = second compound 0.00949 µM, first compound 0.1 µM
# [15] = second compound 0.00949 µM, first compound 0.316 µM
# [16] = second compound 0.00949 µM, first compound 1 µM
# [17] = second compound 0.00949 µM, first compound 3.16 µM
# [18] = second compound 0.00949 µM, first compound 10 µM
# [19] = second compound 0.03 µM, first compound 0.0316 µM
# [20] = second compound 0.03 µM, first compound 0.1 µM
# [21] = second compound 0.03 µM, first compound 0.316 µM
# [22] = second compound 0.03 µM, first compound 1 µM
# [23] = second compound 0.03 µM, first compound 3.16 µM
# [24] = second compound 0.03 µM, first compound 10 µM
# [25] = second compound 0.0949 µM, first compound 0.0316 µM
# [26] = second compound 0.0949 µM, first compound 0.1 µM
# [27] = second compound 0.0949 µM, first compound 0.316 µM
# [28] = second compound 0.0949 µM, first compound 1 µM
# [29] = second compound 0.0949 µM, first compound 3.16 µM
# [30] = second compound 0.0949 µM, first compound 10 µM
# [31] = second compound 0.3 µM, first compound 0.0316 µM
# [32] = second compound 0.3 µM, first compound 0.1 µM
# [33] = second compound 0.3 µM, first compound 0.316 µM
# [34] = second compound 0.3 µM, first compound 1 µM
# [35] = second compound 0.3 µM, first compound 3.16 µM
# [36] = second compound 0.3 µM, first compound 10 µM
# 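Also: spheroids exposed to compound for seven days before readout.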
# 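For IC50 in this document: luminescence signal used as a proxy for viable cells.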
structure (smiles),measurement,setting,value
Cc1nc(N2CCC3(CC2)COC(C)C3N)c(CO)nc1Sc1ccnc(N)c1Cl (stereo unspecified) + CCn1c(-c2cccnc2C(C)OC)c2c3cc(ccc31)N1CCOC(CC(NC(=O)C(C(C)C)N(C)C(=O)C3(F)CCN(C(=O)C#CC(C)(C)N(C)C)CC3)C(=O)N3CCCC(N3)C(=O)OCC(C)(C)C2)C1,IC50,second compound 0.000949 µM,< 31.6 nM
same,IC50,second compound 0.003 µM,< 31.6 nM
same,IC50,second compound 0.00949 µM,< 31.6 nM
same,IC50,second compound 0.03 µM,< 31.6 nM
same,IC50,second compound 0.0949 µM,< 31.6 nM
same,IC50,second compound 0.3 µM,< 31.6 nM
same,"viability, T/C",[1],10.8%
same,"viability, T/C",[2],7.91%
same,"viability, T/C",[3],6.47%
same,"viability, T/C",[4],4.21%
same,"viability, T/C",[5],2.97%
same,"viability, T/C",[6],3.86%
same,"viability, T/C",[7],12%
same,"viability, T/C",[8],8.89%
same,"viability, T/C",[9],6.21%
same,"viability, T/C",[10],4.14%
same,"viability, T/C",[11],3.41%
same,"viability, T/C",[12],2.94%
same,"viability, T/C",[13],10.7%
same,"viability, T/C",[14],8.42%
same,"viability, T/C",[15],5.46%
same,"viability, T/C",[16],3.45%
same,"viability, T/C",[17],2.86%
same,"viability, T/C",[18],3.85%
same,"viability, T/C",[19],10.3%
same,"viability, T/C",[20],6.81%
same,"viability, T/C",[21],6.16%
same,"viability, T/C",[22],3.36%
same,"viability, T/C",[23],2.76%
same,"viability, T/C",[24],2.27%
same,"viability, T/C",[25],6.53%
same,"viability, T/C",[26],6.31%
same,"viability, T/C",[27],5%
same,"viability, T/C",[28],3.1%
same,"viability, T/C",[29],2.61%
same,"viability, T/C",[30],3.31%
same,"viability, T/C",[31],6.4%
same,"viability, T/C",[32],4.69%
same,"viability, T/C",[33],3.02%
same,"viability, T/C",[34],3.78%
same,"viability, T/C",[35],2.19%
same,"viability, T/C",[36],3.11%
C=CC(=O)Nc1cc(Nc2nccc(-c3cn(C)c4ccccc34)n2)c(OC)cc1N(C)CCN(C)C + CCn1c(-c2cccnc2C(C)OC)c2c3cc(ccc31)N1CCOC(CC(NC(=O)C(C(C)C)N(C)C(=O)C3(F)CCN(C(=O)C#CC(C)(C)N(C)C)CC3)C(=O)N3CCCC(N3)C(=O)OCC(C)(C)C2)C1,IC50,second compound 0.000949 µM,< 3.16 nM
same,IC50,second compound 0.003 µM,< 3.16 nM
same,IC50,second compound 0.00949 µM,< 3.16 nM
same,IC50,second compound 0.03 µM,< 3.16 nM
same,IC50,second compound 0.0949 µM,< 3.16 nM
same,IC50,second compound 0.3 µM,< 3.16 nM
same,"viability, T/C","second compound 0.000949 µM, first compound 0.00316 µM",15.6%
same,"viability, T/C","second compound 0.000949 µM, first compound 0.01 µM",14%
same,"viability, T/C",[1],12.5%
same,"viability, T/C",[2],9.48%
same,"viability, T/C",[3],14.1%
same,"viability, T/C",[4],3.07%
same,"viability, T/C","second compound 0.003 µM, first compound 0.00316 µM",13.4%
same,"viability, T/C","second compound 0.003 µM, first compound 0.01 µM",13.9%
same,"viability, T/C",[7],13%
same,"viability, T/C",[8],9.78%
same,"viability, T/C",[9],6.6%
same,"viability, T/C",[10],2.75%
same,"viability, T/C","second compound 0.00949 µM, first compound 0.00316 µM",20%
same,"viability, T/C","second compound 0.00949 µM, first compound 0.01 µM",12.7%
same,"viability, T/C",[13],11.6%
same,"viability, T/C",[14],9.64%
same,"viability, T/C",[15],6.15%
same,"viability, T/C",[16],7.2%
same,"viability, T/C","second compound 0.03 µM, first compound 0.00316 µM",12%
same,"viability, T/C","second compound 0.03 µM, first compound 0.01 µM",11.5%
same,"viability, T/C",[19],11.2%
same,"viability, T/C",[20],7.87%
same,"viability, T/C",[21],5.56%
same,"viability, T/C",[22],3.05%
same,"viability, T/C","second compound 0.0949 µM, first compound 0.00316 µM",10.1%
same,"viability, T/C","second compound 0.0949 µM, first compound 0.01 µM",10.9%
same,"viability, T/C",[25],10.2%
same,"viability, T/C",[26],9.54%
same,"viability, T/C",[27],5.79%
same,"viability, T/C",[28],2.57%
same,"viability, T/C","second compound 0.3 µM, first compound 0.00316 µM",12.4%
same,"viability, T/C","second compound 0.3 µM, first compound 0.01 µM",7.87%
same,"viability, T/C",[31],7.46%
same,"viability, T/C",[32],5.58%
same,"viability, T/C",[33],3.92%
same,"viability, T/C",[34],2.38%
CC(=O)OC12COC1CC(O)C1(C)C(=O)C(O)C3=C(C)C(OC(=O)C(O)C(NC(=O)OC(C)(C)C)c4ccccc4)CC(O)(C(OC(=O)c4ccccc4)C21)C3(C)C (stereo unspecified) + CCn1c(-c2cccnc2C(C)OC)c2c3cc(ccc31)N1CCOC(CC(NC(=O)C(C(C)C)N(C)C(=O)C3(F)CCN(C(=O)C#CC(C)(C)N(C)C)CC3)C(=O)N3CCCC(N3)C(=O)OCC(C)(C)C2)C1,IC50,second compound 0.000949 µM,< 31.6 nM
same,IC50,second compound 0.003 µM,< 31.6 nM
same,IC50,second compound 0.00949 µM,< 31.6 nM
same,IC50,second compound 0.03 µM,< 31.6 nM
same,IC50,second compound 0.0949 µM,< 31.6 nM
same,IC50,second compound 0.3 µM,< 31.6 nM
same,"viability, T/C",[1],12.9%
same,"viability, T/C",[2],10.5%
same,"viability, T/C",[3],11%
same,"viability, T/C",[4],11.9%
same,"viability, T/C",[5],11.6%
same,"viability, T/C",[6],8.54%
same,"viability, T/C",[7],13.3%
same,"viability, T/C",[8],11.5%
same,"viability, T/C",[9],11.2%
same,"viability, T/C",[10],11.5%
same,"viability, T/C",[11],11.5%
same,"viability, T/C",[12],9.41%
same,"viability, T/C",[13],11.1%
same,"viability, T/C",[14],10.2%
same,"viability, T/C",[15],12.1%
same,"viability, T/C",[16],10.1%
same,"viability, T/C",[17],11.2%
same,"viability, T/C",[18],8.58%
same,"viability, T/C",[19],10.2%
same,"viability, T/C",[20],10.9%
same,"viability, T/C",[21],10.7%
same,"viability, T/C",[22],9.38%
same,"viability, T/C",[23],10.1%
same,"viability, T/C",[24],7.46%
same,"viability, T/C",[25],8.76%
same,"viability, T/C",[26],7.61%
same,"viability, T/C",[27],8.1%
same,"viability, T/C",[28],9.57%
same,"viability, T/C",[29],8.69%
same,"viability, T/C",[30],6.64%
same,"viability, T/C",[31],7.24%
same,"viability, T/C",[32],6.04%
same,"viability, T/C",[33],6.63%
same,"viability, T/C",[34],6.97%
same,"viability, T/C",[35],7.51%
same,"viability, T/C",[36],5.29%
